Reference: patent US20210340120A1, “PESTICIDALLY ACTIVE AZOLE-AMIDE COMPOUNDS” (SYNGENTA PARTICIPATIONS AG, priority 2018, published 2021)

What was measured:
Type in all cases: in vivo
Plutella xylostella = assay: Example B3: Plutella xylostella (diamond back moth), artificial diet, eggs; details: 192 h, application rate 200 ppm, 8 days after infestation, read-out: control in at least one of the two categories (mortality or growth inhibition)
Experimental: 24-well microtiter plates with artificial diet were treated with aqueous test solutions prepared from 10′000 ppm DMSO stock solutions by pipetting. After drying, Plutella eggs were pipetted through a plastic stencil onto a gel blotting paper and the plate was closed with it. The samples were assessed for mortality and growth inhibition in comparison to untreated samples 8 days after infestation. The following compounds gave an effect of at least 80% control in at least one of the two categories (mortality or growth inhibition) at an application rate of 200 ppm: P1, P2, P3, P4, P5, P6

Chilo suppressalis = assay: Example B9: Chilo suppressalis (striped rice stemborer), artificial diet, L2 larvae; details: 144 h, application rate 200 ppm, 6 days after infestation, read-out: control in at least one of the three categories (mortality, anti-feedant effect or growth inhibition)
Experimental: 24-well microtiter plates with artificial diet were treated with aqueous test solutions prepared from 10′000 ppm DMSO stock solutions by pipetting. After drying, the plates were infested with L2 larvae (6-8 per well). The samples were assessed for mortality, anti-feeding effect, and growth inhibition in comparison to untreated samples 6 days after infestation. Control of Chilo suppressalis by a test sample is given when at least one of the categories mortality, anti-feedant effect, and growth inhibition is higher than the untreated sample.

Diabrotica balteata = assay: Example B1: Diabrotica balteata (corn root worm), maize sprouts sprayed, L2 larvae; details: 96 h, application rate 200 ppm, 4 days after infestation, read-out: control in at least one of the two categories (mortality or growth inhibition)
Experimental: Maize sprouts placed onto an agar layer in 24-well microtiter plates were treated with aqueous test solutions prepared from 10′000 ppm DMSO stock solutions by spraying. After drying, the plates were infested with L2 larvae (6 to 10 per well). The samples were assessed for mortality and growth inhibition in comparison to untreated samples 4 days after infestation.

Spodoptera littoralis = assay: Example B6: Spodoptera littoralis (Egyptian cotton leaf worm), cotton leaf discs, L1 larvae; details: foliar, 72 h, application rate 200 ppm, 3 days after infestation, read-out: control in at least one of the categories (mortality, anti-feedant effect, or growth inhibition)
Experimental: Cotton leaf discs were placed onto agar in 24-well microtiter plates and sprayed with aqueous test solutions prepared from 10′000 ppm DMSO stock solutions. After drying the leaf discs were infested with five L1 larvae. The samples were assessed for mortality, anti-feeding effect, and growth inhibition in comparison to untreated samples 3 days after infestation. Control of Spodoptera littoralis by a test sample is given when at least one of the categories mortality, anti-feedant effect, and growth inhibition is higher than the untreated sample.

Euschistus heros = assay: Example B2: Euschistus heros (neotropical brown stink bug), soybean leaves sprayed, N2 nymphs; details: 120 h, application rate 200 ppm, 5 days after infestation, read-out: control in at least one of the two categories (mortality or growth inhibition)
Experimental: Soybean leaves on agar in 24-well microtiter plates were sprayed with aqueous test solutions prepared from 10′000 ppm DMSO stock solutions. After drying the leaves were infested with N2 nymphs. The samples were assessed for mortality and growth inhibition in comparison to untreated samples 5 days after infestation.

Tetranychus urticae = assay: Example B7: Tetranychus urticae (two-spotted spider mite) feeding/contact activity, bean leaf discs; details: foliar, 192 h
Experimental: Bean leaf discs on agar in 24-well microtiter plates were sprayed with aqueous test solutions prepared from 10′000 ppm DMSO stock solutions. After drying the leaf discs were infested with a mite population of mixed ages. The samples were assessed for mortality on mixed population (mobile stages) 8 days after infestation.

Myzus persicae [1] = assay: Example B5: Myzus persicae (green peach aphid) intrinsic activity, sucrose solution, 24-well; details: 120 h, test rate 12 ppm, 5 days after infestation
Experimental: Test compounds prepared from 10′000 ppm DMSO stock solutions were applied by pipette into 24-well microtiter plates and mixed with sucrose solution. The plates were closed with a stretched Parafilm. A plastic stencil with 24 holes was placed onto the plate and infested pea seedlings were placed directly on the Parafilm. The infested plate was closed with a gel blotting paper and another plastic stencil and then turned upside down. The samples were assessed for mortality 5 days after infestation.

Thrips tabaci = assay: Example B8: Thrips tabaci (onion thrips) feeding/contact activity, sunflower leaf discs; details: foliar, 144 h, application rate 200 ppm, 6 days after infestation, mixed ages
Experimental: Sunflower leaf discs were placed on agar in 24-well microtiter plates and sprayed with aqueous test solutions prepared from 10′000 ppm DMSO stock solutions. After drying the leaf discs were infested with a thrips population of mixed ages. The samples were assessed for mortality 6 days after infestation.

Myzus persicae [2] = assay: Example B10: Myzus persicae (green peach aphid), sucrose solution, 96-well; details: 120 h, application rate 50 ppm, 5 days after infestation
Experimental: Test compounds prepared from 10′000 ppm DMSO stock solutions were applied by a liquid handling robot into 96-well microtiter plates and mixed with a sucrose solution. Parafilm was stretched over the 96-well microtiter plate and a plastic stencil with 96 holes was placed onto the plate. Aphids were sieved into the wells directly onto the Parafilm. The infested plates were closed with a gel blotting card and a second plastic stencil and then turned upside down. The samples were assessed for mortality 5 days after infestation.

Myzus persicae [3] = assay: Example B4: Myzus persicae (green peach aphid) feeding/contact activity, sunflower leaf discs; details: foliar, 144 h, application rate 200 ppm, 6 days after infestation, mixed ages
Experimental: Sunflower leaf discs were placed onto agar in a 24-well microtiter plate and sprayed with aqueous test solutions prepared from 10′000 ppm DMSO stock solutions. After drying, the leaf discs were infested with an aphid population of mixed ages. The samples were assessed for mortality 6 days after infestation.

CC(NC(=O)c1cc(C(F)(F)F)cc(C(F)(F)F)c1)c1ncnn1-c1ccc(Cl)cn1 (stereo not shown) [Compound P1, N-[1-[2-(5-chloro-2-pyridyl)-1,2,4-triazol-3-yl]ethyl]-3,5-bis(trifluoromethyl)benzamide]
≥ 80%: percent control (mortality or growth inhibition) at 200 ppm (Plutella xylostella) | percent control (mortality, anti-feedant effect or growth inhibition) at 200 ppm (Chilo suppressalis) | percent control (mortality or growth inhibition) at 200 ppm (Diabrotica balteata) | percent control (mortality, anti-feedant effect or growth inhibition) at 200 ppm (Spodoptera littoralis) | percent control (mortality or growth inhibition) at 200 ppm (Euschistus heros)

CC(c1ncnn1-c1ncccc1F)N(CC1CC1)C(=O)c1cc(C(F)(F)F)cc(C(F)(F)F)c1 (stereo not shown) [Compound P2, N-(cyclopropylmethyl)-N-[1-[2-(3-fluoro-2-pyridyl)-1,2,4-triazol-3-yl]ethyl]-3,5-bis(trifluoromethyl)benzamide]
≥ 80%: percent control (mortality or growth inhibition) at 200 ppm (Plutella xylostella) | percent control (mortality or growth inhibition) at 200 ppm (Diabrotica balteata) | percent control (mortality, anti-feedant effect or growth inhibition) at 200 ppm (Spodoptera littoralis)

CC(NC(=O)c1cc(C(F)(F)F)cc(C(F)(F)F)c1)c1ncnn1-c1ccc(F)cn1 (stereo not shown) [Compound P3, N-[1-[2-(5-fluoro-2-pyridyl)-1,2,4-triazol-3-yl]ethyl]-3,5-bis(trifluoromethyl)benzamide]
≥ 80%: percent control (mortality or growth inhibition) at 200 ppm (Plutella xylostella) | percent control (mortality or growth inhibition) at 200 ppm (Diabrotica balteata) | percent control (mortality, anti-feedant effect or growth inhibition) at 200 ppm (Spodoptera littoralis) | percent control (mortality or growth inhibition) at 200 ppm (Euschistus heros) | mortality at 200 ppm (Tetranychus urticae) | mortality at 12 ppm (Myzus persicae [1])

CC(NC(=O)c1cc(C(F)(F)F)cc(C(F)(F)F)c1)c1ncnn1-c1ncccc1F (stereo not shown) [Compound P4, N-[1-[2-(3-fluoro-2-pyridyl)-1,2,4-triazol-3-yl]ethyl]-3,5-bis(trifluoromethyl)benzamide]
≥ 80%: percent control (mortality or growth inhibition) at 200 ppm (Plutella xylostella) | percent control (mortality or growth inhibition) at 200 ppm (Diabrotica balteata) | percent control (mortality, anti-feedant effect or growth inhibition) at 200 ppm (Spodoptera littoralis) | mortality at 200 ppm (Thrips tabaci) | percent control (mortality or growth inhibition) at 200 ppm (Euschistus heros) | mortality at 50 ppm (Myzus persicae [2])

CC(c1ncnn1-c1ccc(F)cn1)N(CC1CC1)C(=O)c1cc(C(F)(F)F)cc(C(F)(F)F)c1 (stereo not shown) [Compound P5, N-(cyclopropylmethyl)-N-[1-[2-(5-fluoro-2-pyridyl)-1,2,4-triazol-3-yl]ethyl]-3,5-bis(trifluoromethyl)benzamide]
≥ 80%: percent control (mortality or growth inhibition) at 200 ppm (Plutella xylostella) | percent control (mortality or growth inhibition) at 200 ppm (Diabrotica balteata) | percent control (mortality, anti-feedant effect or growth inhibition) at 200 ppm (Spodoptera littoralis) | percent control (mortality or growth inhibition) at 200 ppm (Euschistus heros) | mortality at 200 ppm (Tetranychus urticae) | mortality at 200 ppm (Myzus persicae [3])

CC(NC(=O)c1cc(C(F)(F)F)cc(C(F)(F)F)c1)c1ncnn1-c1cccc(F)n1 (stereo not shown) [Compound P6, N-[1-[2-(6-fluoro-2-pyridyl)-1,2,4-triazol-3-yl]ethyl]-3,5-bis(trifluoromethyl)benzamide]
≥ 80%: percent control (mortality or growth inhibition) at 200 ppm (Plutella xylostella) | percent control (mortality, anti-feedant effect or growth inhibition) at 200 ppm (Chilo suppressalis)
